From PubChem BioAssay (NCI)
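Cells were grown in 96-well plates and exposed to each compound for 48 hours at five concentrations; endpoints were interpolated linearly between bracketing concentrations, or set to the highest concentration if not reached. At the TGI there is no net growth.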

Legend:
Experiment in all cases: NCI anticancer screen, dose series, 48 h
KM12 colon = test system: KM12 colon
OVCAR-3 ovarian = test system: OVCAR-3 ovarian
SF-268 CNS = test system: SF-268 CNS
UO-31 renal = test system: UO-31 renal
K-562 leukemia = test system: K-562 leukemia
OVCAR-5 ovarian = test system: OVCAR-5 ovarian
MDA-MB-435 = test system: MDA-MB-435
SNB-19 CNS = test system: SNB-19 CNS
MOLT-4 leukemia = test system: MOLT-4 leukemia
SN12C renal = test system: SN12C renal
CCRF-CEM leukemia = test system: CCRF-CEM leukemia
TK-10 renal = test system: TK-10 renal
SF-539 CNS = test system: SF-539 CNS

Row | Structure (SMILES) | TGI (KM12 colon) [µM] | TGI (OVCAR-3 ovarian) [µM] | TGI (SF-268 CNS) [µM] | TGI (UO-31 renal) [µM] | TGI (K-562 leukemia) [µM] | TGI (OVCAR-5 ovarian) [µM] | TGI (MDA-MB-435) [µM] | TGI (SNB-19 CNS) [µM] | TGI (MOLT-4 leukemia) [µM] | TGI (SN12C renal) [µM] | TGI (CCRF-CEM leukemia) [µM] | TGI (TK-10 renal) [µM] | TGI (SF-539 CNS) [µM]
1 | O=C(Cn1c2ccc(Br)cc2c2nc3ccccc3nc21)N1CCOCC1 | > 100 | > 100 | > 100 | > 100 | > 100 | > 100 | > 100 | > 100 | > 100 | > 100 | > 100 | > 100 | –
2 | CCOC(=O)c1cc(C2CCN(Cc3ccccc3)C2=O)c(C(=O)/C=C(/C)N)[nH]1 (configuration not stated) | > 100 | > 100 | > 100 | > 100 | > 100 | > 100 | > 100 | > 100 | > 100 | – | – | > 100 | –
3 | O=C(N/N=C\c1ccc(Cl)cc1)Nc1cccc2ccccc12 | > 23 | 3.24 | > 26.1 | 4.84 | > 100 | > 100 | 6.67 | 5.64 | > 43.7 | 76 | > 31.9 | 17 | 35.7
4 | CSc1c(S(C)=O)c2ccccc2n1C (configuration not stated) | > 100 | > 100 | > 100 | > 100 | > 100 | > 100 | > 100 | > 100 | > 100 | > 100 | > 100 | > 100 | > 100
5 | COC(=O)CCc1cc(OC)c2oc(-c3ccc(OC)c(OC)c3)c(CO)c2c1 | > 100 | > 100 | > 100 | > 100 | > 100 | > 100 | > 100 | > 100 | > 100 | > 100 | > 100 | > 100 | > 100
6 | CC(=O)Oc1ccc(C)c2c1[C@H]1CC[C@]3(C)[C@@H](OC(C)=O)CC[C@H]3[C@@H]1CC2 | 35.1 | 33.1 | 80.3 | > 100 | 68.3 | > 100 | 32.9 | 32.6 | 46.5 | 39 | 55.2 | 67.9 | 38
7 | CC(=O)c1sc2c(c1OC(=O)c1ccccc1)c(=O)n(-c1ccccc1)c(=S)n2-c1ccccc1 | 92.3 | > 62.5 | > 63 | 12.6 | > 58.3 | 17.1 | 28.9 | > 47.8 | 8.3 | > 42.5 | 5.83 | > 86.9 | 5.65
8 | CC1=C(C(=O)NNC(=O)c2ccccc2O)CC(C(=O)NNC(=O)c2ccccc2O)=C(C)N1 | > 100 | > 23.4 | > 100 | 18.8 | > 100 | > 100 | > 100 | > 100 | > 100 | > 100 | > 35.5 | > 100 | 41.8
9 | CCOC(OCC)[C@@H]1C[C@@H]2N(O[C@H](OC3CCCC3(c3ccccc3)c3ccccc3)[C@H](OC(C)=O)[C@@]2(CC)Cc2ccc(OC)c(OC)c2)O1 (some centres not stated) | > 100 | > 100 | > 100 | > 100 | > 100 | > 100 | > 100 | > 100 | > 100 | > 100 | > 100 | > 100 | > 100
10 | Cc1ccc(/C=C2\CCS(=O)(=O)c3ccccc3C2=O)cc1 | 30.6 | 37.7 | 51.6 | 25.4 | > 100 | 90.7 | 55.2 | 36.5 | 43.6 | 45.1 | 62.3 | 30.9 | > 100
11 | CC(C)NC(=O)OCc1c(COC(=O)NC(C)C)c(-c2cc[n+](COC(=O)Cc3ccccc3)cc2)n2c1CCC2 | > 100 | > 100 | > 100 | > 100 | > 100 | > 100 | > 100 | > 100 | > 100 | > 100 | > 100 | > 100 | > 100
12 | CCOC(=O)NC(C(F)(F)F)(C(F)(F)F)P(=O)(OCC)OCC | > 100 | > 100 | > 100 | 85.5 | > 100 | > 100 | > 100 | > 100 | 97.9 | > 100 | > 100 | > 100 | –
13 | CC(C)(C)C1CCC2c3c([nH]c4ccccc34)C3C(=O)N(c4cc(Cl)ccc4Cl)C(=O)C3C2C1 (configuration not stated) | – | > 100 | – | > 100 | > 100 | > 100 | > 100 | > 100 | > 100 | > 100 | > 100 | > 100 | > 100
